{
  "source": "patent US8552018B2",
  "about": "“Substituted tricyclic compounds as protein kinase inhibitors” (Arizona Board of Regents on behalf of the University of …, priority 2003, dated 2013)",
  "key": {"GIST882 cell line [1]": {"system": "GIST882 cell line", "experiment": "GIST882 cell growth assay (Cell-Titer-Glo)", "format": "cell-based", "experimental": "(§1) Briefly, cells are seeded into 96-well, tissue-culture treated, opaque white plates (Thermo Electron, Vantaa, Finland), at between 5000 and 7500 cells per well, depending on the speed of cell proliferation, in 100 μl of appropriate growth medium (determined by the ATCC). Cells are then exposed to the appropriate concentration of drug or an equal amount of DMSO (drug diluent) and allowed to grow in its presence for 96 hours. Following this, 100 μl of Cell-Titer-Glo reagent (Promega, Inc., Madison, Wis.) is added to each well. Plates are then shaken for 2 minutes at room temperature to allow for cell lysis and incubated for 10 minutes to stabilize the luminescent signal. Similar to the Kinase-Glo assay reagent, this reagent contains both luciferase enzyme and its substrate luciferin. Luciferase, activated by ATP in the cell lysate, catalyzes the conversion of luciferin to oxyluciferin, a reaction which produces light. The amount of light produced is proportionate to the amount of ATP in the cell lysate, which is itself proportional to cell number and gives an index of cellular proliferation.\nas §1, with “Various compounds of the invention, including (IV-1-3) (also referred to as HPK16), (III-1-3) (also referred to as HPK56), (III-1-4) (also referred to as HPK57), (III-1-5) (also referred to as HPK59), and (II-2-7) (also referred to as HPK61) were tested for activity against GIST tumor cells using the GIST882 cell line. Briefly,” for “Briefly,”"}, "GIST882 cell line [2]": {"system": "GIST882 cell line", "experiment": "Cancer cell cytotoxicity assay (sulforhodamine B)", "format": "cell-based", "experimental": "(§2) To validate the hypothesis that the designed c-kit/PDGFR tyrosine kinase inhibitors mediate GIST882 cell killing and PDGFR-mediated cell killing of pancreatic cancer cell lines (CFPAC-1, PANC-1 and MIA PaCa-2), an in vitro cytotoxicity assay was performed. The GIST882 cell line used in this study has a c-kit gain-of-function mutation (K642E). […] First the cells were cultured. GIST882 cells were provided by Dr. Jonathan A. Fletcher (Dana-Farber Cancer Institute, Boston, Mass.). PANC-1 and MIAPaCa-2 cells were provided by Dr. Daniel Von Hoff (Arizona Cancer Center, Tucson, Ariz.). […] All the cell lines were incubated in a humidified incubator at 37° C. with 5% CO2 atmosphere.\n(§3) After incubation for 4 days at 37° C. in a humidified incubator, the cells were fixed with 10% Trichloroacetic acid solution (Catalog No. 490-10, Sigma). Subsequently, they were labeled with 0.04% Sulforhodamine B (S9012, Sigma) in 1% acetic acid. After multiple washes to remove excess dye, 100 μl of 50 mM Tris solution was added to each well in order to dissolve the dye. The absorbance of each well was read on a plate reader (Wallac Vector^2, PerkinElmer) at the wavelength of 570 nm. Data were expressed as the percentage of survival of control calculated from the absorbance corrected for background absorbance. The surviving percent of cells was determined by dividing the mean absorbance values of the […] by the mean absorbance values of the control and multiplying by 100."}, "c-Kit": {"biological_target": "c-Kit (Homo sapiens, UniProt P10721)", "sequence (P10721 26-976)": "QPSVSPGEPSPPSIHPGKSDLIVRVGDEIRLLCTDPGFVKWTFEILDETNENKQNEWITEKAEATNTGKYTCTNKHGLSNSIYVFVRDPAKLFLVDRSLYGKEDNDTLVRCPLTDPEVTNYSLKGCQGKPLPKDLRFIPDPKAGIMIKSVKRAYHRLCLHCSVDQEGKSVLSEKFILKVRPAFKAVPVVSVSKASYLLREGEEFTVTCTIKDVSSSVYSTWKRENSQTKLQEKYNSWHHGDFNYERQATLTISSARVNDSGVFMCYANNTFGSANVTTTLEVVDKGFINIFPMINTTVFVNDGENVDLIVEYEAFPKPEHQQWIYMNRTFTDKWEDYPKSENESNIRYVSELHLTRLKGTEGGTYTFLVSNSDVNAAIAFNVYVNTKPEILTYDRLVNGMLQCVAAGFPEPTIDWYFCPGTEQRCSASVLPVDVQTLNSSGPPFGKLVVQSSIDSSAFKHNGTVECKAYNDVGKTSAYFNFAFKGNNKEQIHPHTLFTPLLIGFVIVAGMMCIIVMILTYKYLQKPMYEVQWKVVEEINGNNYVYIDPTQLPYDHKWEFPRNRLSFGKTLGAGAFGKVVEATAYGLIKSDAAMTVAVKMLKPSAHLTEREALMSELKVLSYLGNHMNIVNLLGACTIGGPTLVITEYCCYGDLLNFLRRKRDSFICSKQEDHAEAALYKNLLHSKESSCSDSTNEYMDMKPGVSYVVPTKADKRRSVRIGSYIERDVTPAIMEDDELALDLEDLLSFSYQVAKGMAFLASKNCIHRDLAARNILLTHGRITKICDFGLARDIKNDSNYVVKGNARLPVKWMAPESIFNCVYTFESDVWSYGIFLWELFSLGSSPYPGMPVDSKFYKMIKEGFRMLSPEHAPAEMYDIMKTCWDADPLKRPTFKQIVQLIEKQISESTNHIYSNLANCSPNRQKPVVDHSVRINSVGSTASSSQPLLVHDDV", "experiment": "Autophosphorylation assay with γ-32P-ATP", "format": "biochemical", "details": "FIG. 28A", "experimental": "Enzymes were incubated with the appropriate concentration of inhibitor and radiolabeled γ-^32P-ATP. After 30 minutes, the reaction mixtures were electrophoresed on an acrylamide gel and autophosphorylation, quantitated by the amount of radioactivity incorporated into the enzyme, was assayed."}, "[3]": {"system": "pancreatic cancer cell lines MIAPaCa-2 and PANC-1", "experiment": "Cancer cell cytotoxicity assay, range over both pancreatic lines", "format": "cell-based", "details": "potency order", "experimental": "as §2\nas §3, with “After multiple washes to remove excess dye, 100 μl of 50 mM Tris solution was added to each well in order to dissolve the dye.” left out"}, "PANC-1 cells": {"system": "PANC-1 cells", "experiment": "Cancer cell cytotoxicity assay (sulforhodamine B)", "format": "cell-based", "details": "Homo sapiens, 96 h; PANC-1, 4 days; read-out: IC50 PDGFR PANC-1", "experimental": "To validate the hypothesis that the designed c-kit/PDGFR tyrosine kinase inhibitors mediate GIST882 cell killing and PDGFR-mediated cell killing of pancreatic cancer cell lines (CFPAC-1, PANC-1 and MIA PaCa-2), an in vitro cytotoxicity assay was performed. The GIST882 cell line used in this study has a c-kit gain-of-function mutation (K642E). The assay utilized the Cell Titer 965 Non-Radioactive Cell Proliferation Assay (Promega Corp., Madison, Wis.). First the cells were cultured. GIST882 cells were provided by Dr. Jonathan A. Fletcher (Dana-Farber Cancer Institute, Boston, Mass.). PANC-1 and MIAPaCa-2 cells were provided by Dr. Daniel Von Hoff (Arizona Cancer Center, Tucson, Ariz.). GIST882 cells were cultured in RPMI 1640 medium (Cat #21870-076, Invitrogen Corporation) supplemented with 300 mg/L L-glutamine, 100 unit/ml penicillin, 100 μg/ml streptomycin and 15% fetal bovine serum. PANC-1 and MIAPaCa-2 cells were maintained in RPMI 1640 medium (cat #10-040, Mediatech, Inc.) supplemented with 100 unit/ml penicillin, 100 μg/ml streptomycin and 10% fetal bovine serum. All the cell lines were incubated in a humidified incubator at 37° C. with 5% CO2 atmosphere.\nas §3, with “Cells were plated at a density of 2000 to 10000 cells per well, depending on their growth rate, in 0.1 mL medium on day 0 in 96-well Falcon microtiter plates (#3072, Becton-Dickinson Labware, Lincoln Park, N.J.). On day 1, 10 μL of serial dilutions of the individual compounds were added to the plates in replicates of 4. After incubation” for “After incubation”"}},
  "data": [
    {"smiles": "COc1cc2[nH]c3ncnc(N4CCN(C(=S)NCc5ccc6c(c5)OCO6)CC4)c3c2cc1OC", "note": "[HPK61, 4-(6,7-Dimethoxy-9H-1,3,9-triaza-fluoren-4-yl)-piperazine-1-carbothioic acid (benzo[1,3]dioxol-5-ylmethyl)-amide]", "values": [
      {"measurement": "inhibitory activity in GIST882 cell line (in words)", "setting": "GIST882 cell line [1]; FIG. 29, 96 hours", "result": "highest inhibitory activity"},
      {"measurement": "IC50", "setting": "GIST882 cell line [1]; Homo sapiens, GIST882, 96 hours", "result": 0.45, "unit": "µM"},
      {"measurement": "cells alive at day 4", "setting": "GIST882 cell line [2]; GIST882, day 4", "result": 5, "unit": "%"},
      {"measurement": "IC50", "setting": "GIST882 cell line [2]; Homo sapiens, 96 h, GIST882, 4 days, read-out: IC50 c-kit GIST882", "result": 0.45, "unit": "µM"},
      {"measurement": "inhibition of c-Kit autophosphorylation (in words)", "setting": "c-Kit", "result": "dose-dependent"},
      {"measurement": "IC50", "setting": "[3]", "result": "15.5 to 16", "unit": "µM"},
      {"measurement": "IC50", "setting": "PANC-1 cells", "result": 16, "unit": "µM"}
    ]}
  ]
}
